Test results reported in patent US10464957B2, “Oxidized lipids and methods of use thereof” (Vascular Biogenics Ltd., priority 2014, dated 2019).

Key:
[1] = system: LPS (TLR4)-induced signaling in human monocytes (primary CD14+); assay: LPS (TLR4)-induced signaling, western blot; type: cell-based; details: for formation of p-IKK, p-ERK and p-p38 induced by LPS: 20 min pretreatment, 15 min activation with 100 ng/ml LPS
Description: Venous blood samples were obtained from healthy male donors in compliance with the Institutional Review Board at the Sheba Medical Center, Ramat Gan, Israel. PBMCs were isolated on Ficoll-Paque PLUS (GE Healthcare, Uppsala, Sweden) using 50 ml Leucosep tubes (Greiner Bio-One, Frickenhausen, Germany). Cells were washed in PBS (Kibbutz Beit Haemek, Israel) and incubated at 4° C. for 15 minutes in a buffer containing PBS and 0.5% bovine serum albumin (BSA) with human CD14 microbeads (Miltenyi Biotec, Bergisch Gladbach, Germany).
(§1) Cells (10^6/ml) were pretreated for 20 min with VB-201 (1-hexadecyl-2-(4′-carboxy)butyl-glycero-3-phosphocholine or 1-hexadecyl-2-(4′-carboxybutyl)-glycerol-3-phosphocholine) or VB-701 at the doses indicated in FIG. 2, or with solvent (Sol), followed by 15 min activation with 100 ng/ml lipopolysaccharide (LPS) or were untreated (Unt). Cells were washed and resuspended in lysis buffer containing 1:100 dithiothreitol (DTT), phosphatase and protease inhibitors (Thermo Scientific). Samples were loaded onto a precast Criterion TGX gel (Bio-Rad, Hemel Hempstead, UK) and transferred onto nitrocellulose membrane. Blots were blocked with 5% milk or BSA in Tris buffered saline and Tween 20 (TBST) for 1 h, followed by incubation with primary and secondary antibodies. Membranes were developed using an ECL kit (Thermo Scientific). The following antibodies were used for immunoblotting:
(§2) Primary antibodies: p-p38 (Cat. No. 4511; 1:1000) and p-IKK (Cat. No. 2697; 1:1000) were from Cell Signaling Technology (Danvers, Mass., USA). p-ERK1/2 (Cat. No. M8159; 1:10000) was purchased from Sigma (Israel). αTubulin (Tub) served as a loading control.
(§3) Secondary antibodies: HRP donkey anti-rabbit (1:5000) and HRP goat anti-mouse (1:3000) were from Jackson ImmunoResearch (West Grove, Pa., USA). HRP donkey anti-goat (1:5000) was from Santa Cruz Biotechnology.
as §1, with “VB-201” for “VB-201 (1-hexadecyl-2-(4′-carboxy)butyl-glycero-3-phosphocholine”, “VB-703” for “1-hexadecyl-2-(4′-carboxybutyl)-glycerol-3-phosphocholine) or VB-701 at the doses indicated in FIG. 2, or with solvent (Sol),”, “LPS.” for “lipopolysaccharide (LPS) or were untreated (Unt).”
as §2, with “Heat shock protein (HSP) 90 (Cat. No. 13119; 1:500) was from Santa Cruz Biotechnology (Santa Cruz, Calif., USA).” for “αTubulin (Tub) served as a loading control.”

[2] = system: PGN (TLR2)-induced signaling in human monocytes (THP-1 cell line); assay: PGN (TLR2)-induced signaling, western blot; type: cell-based; details: 20 min pretreatment, 20 μg/ml PGN for 15 minutes
Description: The monocytic THP-1 cell line was purchased from the American Type Tissue Culture Collection (ATCC Cat. No. TIB-202). Cells (10^6/ml) were pretreated for 20 min with VB-201 or VB-701 at the doses indicated in FIG. 3, or with solvent, followed by activation with 20 μg/ml peptidoglycan (PGN) (InvivoGen, San Diego, Calif.) for 15 minutes, or were untreated (“Unt”). Cells were washed and resuspended in lysis buffer containing 1:100 dithiothreitol (DTT), phosphatase and protease inhibitors (Thermo Scientific). Samples were loaded onto a precast Criterion TGX gel (Bio-Rad, Hemel Hempstead, UK) and transferred onto nitrocellulose membrane. Blots were blocked with 5% milk or BSA in Tris buffered saline and Tween 20 (TBST) for 1 h, followed by incubation with primary and secondary antibodies. Membranes were developed using an ECL kit (Thermo Scientific). The following antibodies were used for immunoblotting:
Primary antibodies: p-p38 (Cat. No. 4511; 1:1000) and p-IKK (Cat. No. 2697; 1:1000) were from Cell Signaling Technology (Danvers, Mass., USA). p-ERK1/2 (Cat. No. M8159; 1:10000) was purchased from Sigma (Israel). αTubulin served as a loading control.
as §3

TLR4 complex = molecular target: T1, TLR4 complex (Homo sapiens, UniProt O00206+Q9Y6Y9); assay: LPS binding inhibition assay (biotin-LPS, FACS)
T1 construct: endogenous in cells; probably the human primary monocytes of b454
T1 sequence (O00206 24-839): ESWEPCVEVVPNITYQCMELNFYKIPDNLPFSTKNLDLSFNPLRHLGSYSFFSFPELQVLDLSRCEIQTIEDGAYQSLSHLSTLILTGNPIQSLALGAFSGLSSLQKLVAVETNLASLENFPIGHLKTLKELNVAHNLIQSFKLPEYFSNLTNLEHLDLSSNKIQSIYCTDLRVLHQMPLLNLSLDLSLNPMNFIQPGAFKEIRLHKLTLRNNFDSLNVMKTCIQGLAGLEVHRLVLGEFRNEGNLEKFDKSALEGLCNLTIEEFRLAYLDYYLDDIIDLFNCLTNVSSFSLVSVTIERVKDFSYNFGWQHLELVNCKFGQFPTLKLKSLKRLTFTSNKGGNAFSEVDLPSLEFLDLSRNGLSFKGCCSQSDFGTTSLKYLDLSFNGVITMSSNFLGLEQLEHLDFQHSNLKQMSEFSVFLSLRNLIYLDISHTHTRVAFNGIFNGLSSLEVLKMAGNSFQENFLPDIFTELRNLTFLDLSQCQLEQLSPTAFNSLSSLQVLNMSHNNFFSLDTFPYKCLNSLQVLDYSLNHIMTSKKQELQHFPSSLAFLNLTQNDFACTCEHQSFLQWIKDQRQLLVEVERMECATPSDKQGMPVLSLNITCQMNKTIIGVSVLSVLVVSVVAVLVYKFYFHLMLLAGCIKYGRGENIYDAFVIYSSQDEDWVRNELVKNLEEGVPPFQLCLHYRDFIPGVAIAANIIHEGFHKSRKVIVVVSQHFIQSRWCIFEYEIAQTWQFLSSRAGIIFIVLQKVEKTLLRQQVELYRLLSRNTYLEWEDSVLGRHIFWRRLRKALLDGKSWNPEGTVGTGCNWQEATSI
T1 sequence (Q9Y6Y9 17-160 limits assumed): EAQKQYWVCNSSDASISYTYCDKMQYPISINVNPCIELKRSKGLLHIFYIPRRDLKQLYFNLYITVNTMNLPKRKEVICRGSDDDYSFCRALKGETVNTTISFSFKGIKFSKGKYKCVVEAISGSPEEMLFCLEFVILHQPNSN
Description: To assess interference with lipopolysaccharide (LPS) binding, VB-201 or VB-703 were incubated for 20 min with cells (10^6/ml) after which 100 ng/ml of biotin-LPS (InvivoGen) was added for an additional 15 minutes, all at 4° C. Cells were washed, resuspended in FACS buffer and analyzed on a FACS-Calibur device.

[3] = system: LPS (TLR4) stimulated Mo-Derived DCs; assay: Cytokine secretion ELISA, LPS (TLR4)-stimulated monocyte-derived dendritic cells; type: cell-based, human; details: 1 hour pretreatment, 24 hours 100 ng/ml LPS
Description: To generate monocyte-derived DC (Mo-DCs), CD14+ monocytes were counted, washed and seeded (10^6/ml) in medium containing RPMI-1640, L-glutamine, β-mercaptoethanol, 10% fetal calf serum (FCS), sodium pyruvate, non-essential amino acids, 0.01 M HEPES, antibiotics (penicillin, streptomycin), 50 ng/ml human granulocyte-macrophage colony-stimulating factor (GMCSF) and 20 ng/ml human IL-4 (both from PeproTech Asia, Israel). Medium was replaced every 2-3 days. Mo-DCs were collected 5-6 days post-culture, counted and seeded (10^6/ml). Cells were pretreated for 1 hour with VB-201 or VB-703, followed by 24 hours activation with 100 ng/ml LPS from Escherichia coli strain 055:B5 (Sigma, Israel) to induce cytokine production. IL-6 concentration (FIG. 14) and IL-12/23p40 (FIG. 15) concentration in supernatant were measured by ELISA (R&D systems, Cat. No. DY1240 and Cat. No. DY206, […]). Cells activated with solvent (0.5% ethanol in PBS) were used as a control.

Compound | formation of p-IKK, p-ERK and p-p38 induced by LPS ([1]; western blot) | efficacy in inhibiting TLR4-driven protein phosphorylation, fold higher than VB-201 ([1]; compared with VB-201) [fold] | formation of p-IKK, p-ERK and p-p38 induced by PGN [2] | LPS-biotin binding to human monocytes (primary CD14+) (TLR4 complex; biotin-LPS 100 ng/ml, FACS) | IC50 of LPS binding, fold lower than that of VB-201 (TLR4 complex; compared with VB-201) [fold] | IL-6 secretion [3] | IL-12p40 secretion [3] | formation of p-ERK and p-AKT induced by LPS ([1]; western blot, LPS activation) | IC50 (TLR4 complex; biotin-LPS 100 ng/ml, 4° C., human primary monocytes) [µM]
CCCCCCCCCCC(CCCCCCCC)COC[C@H](COP(=O)([O-])OCC[n+]1ccccc1)OCCCCC(=O)O (stereo partly drawn) [VB-703, (R)-1-(2′-octyl)dodecyl-2-(4′-carboxy)butyl-sn-glycero-3-phosphoric acid pyridiniumethyl ester] | inhibited | ≥ 10 | inhibit | inhibit | > 10 | inhibit | inhibit | – | –
CCCCCCCCCCCCCCCCOCC(COP(=O)([O-])OCC[N+](C)(C)C)OCCCCC(=O)O (stereo not shown) [VB-201, 1-hexadecyl-2-(4′-carboxy)butyl-glycero-3-phosphocholine, reference compound] | inhibit | – | inhibit | – | – | inhibit | inhibit | inhibit | ~12
